Reference: patent US20200297775A1, “ENHANCED DIRECT CARDIAC REPROGRAMMING” (The J. David Gladstone Institutes, A Testamentary Trust …, priority 2016, published 2020)

Experiments:
cardiac fibroblasts = assay: Activation or knockdown of TGF-β/WNT signaling during GMT reprogramming; format: cell-based, mouse; conditions: added during GMT reprogramming
Text: It was also observed that activating TGF-β or canonical WNT signaling reversed the reprogramming efficiency gains induced by SB431542 or XAV939, respectively. […] Moreover, overexpression of constitutively active SMAD2 or SMAD3 (TGF-β signaling effectors) abolished cardiac reprogramming enhancement by SB431542 (FIG. 15). […] An ˜80% reduction of ALK4 or ALK5 (FIG. 16) enhanced direct cardiac reprogramming, similar to SB431542 (FIG. 16). […] Thus, SB431542 and XAV939 enhance cardiac reprogramming by inhibiting TGF-β and canonical WNT signaling.

SMAD2/3 = assay: Western blot, phosphorylation of SMAD2/3; format: cell-based
Description: (§1) Next, the mechanisms by which the small molecules regulate TGF-β and WNT signaling were investigated. Proteins from cell lysates containing 20 μg of protein were separated by SDS-PAGE and electrophoretically transferred onto polyvinylidene difluoride membranes (BioRad). Membranes were then washed in PBS, treated with blocking buffer (Li-cor), and then incubated with primary antibodies at 4° C. overnight. The following primary antibodies were used: anti-GAPDH antibody loading control (Abcam # ab9484, 0.5 μg/ml), anti-Active β-Catenin antibody (Millipore #05-665, 1:1000), anti-T-Antigen (Abcam # ab16879, 1:1000), and anti-phospho-Smad2/3 (Cell Signaling #8685S, 1:1000). Membranes were washed in PBS and incubated with the appropriate secondary antibodies (Li-Cor, IRDye […]; IRDye 800CW, 1:10,000) for 1 hour at room temperature. Membranes were washed and visualized with an Odyssey Fc Dual-mode Imaging System.

[1] = tested on: mouse cardiac fibroblasts; assay: GMT reprogramming efficiency, α-MHC-GFP+ iCMs (dose, timing, FACS); format: cell-based
[2] = tested on: Thy1+ neonatal cardiac fibroblasts from α-MHC-GFP transgenic mice; assay: Drug screening of GMT cardiac reprogramming, α-MHC-GFP reporter, high-content imaging; format: cell-based, mouse; conditions: compounds added day 1, read-out 2 weeks
Text: To identify biological pathways that could be manipulated to improve cardiac reprogramming, a chemical biology approach involving an unbiased small molecule library screen was used. Cardiac reprogramming was induced with the recently described polycistronic GMT retrovirus Mef2c-P2A-Gata4-T2A-Tbx5 to ensure that each of the three transcription factors are optimally expressed, as described in detail in Wang et al. (2015) Circ. Res. 116:237-244.
Briefly, mouse cardiac fibroblasts (CF) were isolated from PO-P4 αMHC-GFP transgenic neonates using the migration method as previously described. Burridge et al. (2012) Cell Stem Cell 10:16-28; Ieda et al. (2010) Cell 142:375-386. Hearts were isolated, minced, and onto gelatin-coated plates and incubated in fibroblast explant media (20% FBS in IMOM) for one week at 37° C. The tissue was washed with 2×PBS, digested in 0.05% Trypsin for 5 minutes, and resuspended in fibroblast explant media. Tissues were filtered through a […] filter and pelleted. Pelleted cells were stained for 20 minutes with Thy-1-APC (anti-mouse/rat CD90.1 thy-1.1) (Ebioscience, San Diego, Calif., USA) and washed 2× with PBS as previously described. Ieda et al. (2010) Cell 142:375-386. Cells were sorted for APC^+ cells by fluorescence activated cell sorting (FACS) and plated onto 10 cm gelatin-coated plates and used fresh for all studies without freezing.
Direct conversion of Thy1^+ CFs to iCMs was completed as previously described in Ieda et al. (2010) Cell 142:375-386. Briefly, pMXs-Gata4, pMXs-Mef2c, pMXs-Tbx5, polycistronic pMXs-Mef2c-Gata4-Tbx5 (GMT polycistronic) or pMXs-dsRed were constructed as previously described. Ieda et al. (2010) Cell 142:375-386; Wang, L., et al. (2015) Circ Res 116, 237-244 (2015). Retroviral vectors were packaged using Fugene HD (Roche) and delivered in OptiMEM (10 μg) to 15-cm plates containing ˜80% confluent PlatE cells in fibroblast explant media, as previously described. Qian, L., et al. (2012) Nature 485, 593-59. Viral supernatant was collected 48 hours post-transfection and used to infect cardiac fibroblasts with the addition of 0.6 μg/ml polybrene (Chemicon) and added to cardiac fibroblasts at day −1. After 24 hours, the culture medium was replaced with cardiomyocyte culture medium (iCM medium (Qian, L., et al. (2013) Nature Protocols 8: 1204-1215)) at day 0, and replaced every 3-4 days. Three separate Gata4, Mef2c, and Tbx5 retroviruses were used in the initial drug screening and the in vivo experiments; however for further in vitro experiments following the initial screening the GMT polycistronic retrovirus was used.
For drug screening, Thy1^+ neonatal cardiac fibroblasts from α-MHC-GFP transgenic mice were plated in 384-well plates at a density of 2000 cells/well. Cells were reprogrammed with the GMT retrovirus as described above. At day 1 of reprogramming, the virus was replaced with iCM medium and the compounds were added to the wells using a Biomek liquid-handling robotic station to achieve a 1:1000 dilution of the drug-library concentration. Libraries of 5500 toxicologically tested compounds (e.g., LOPAC, TOCRIS, LONZA, and […]) were screened. At day 14 of reprogramming, the plates were fixed and stained for GFP and Troponin T as described under immunocytochemistry and imaged using high-throughput, high-content imaging with an INCELL system. Data were analyzed using the INCELL image-analysis package.
For immunocytochemical analysis and quantification, samples were fixed using 4% paraformaldehyde (PFA), washed twice in PBS containing 0.1% Triton X-100 (PBST), and blocked with Power Block Universal Blocking Reagent (Biogenex, # HK085-5K) for 15 minutes at room temperature as previously described. Qian et al. (2013) Nature protocols 8:1204-1215. Samples were incubated in a mixture containing primary antibodies diluted in PBST and blocking buffer (1:1) and incubated at 4° C. overnight.

[3] = tested on: mouse cardiac fibroblasts; assay: Appearance of beating cells, Troponin T staining and sarcomere organization in iCMs; format: cell-based; conditions: after GMT infection
Description: For immunocytochemical analysis and quantification, samples were fixed using 4% paraformaldehyde (PFA), washed twice in PBS containing 0.1% Triton X-100 (PBST), and blocked with Power Block Universal Blocking Reagent (Biogenex, # HK085-5K) for 15 minutes at room temperature as previously described. Qian et al. (2013) Nature protocols 8:1204-1215. Samples were incubated in a mixture containing primary antibodies diluted in PBST and blocking buffer (1:1) and incubated at 4° C. overnight. The following primary antibodies were used: troponin T, cardiac isoform Ab-1, mouse monoclonal antibody (Thermo Scientific # MS-295-PO, 1:200), monoclonal anti-α-actinin sarcomeric antibody (Sigma Aldrich # A7811, 1/200), and anti-GFP (Thermo Scientific # A11120, 1:200). Samples were washed twice with PBST for 15 minutes each at room temperature and then incubated in a mixture containing secondary antibodies diluted in PBST and blocking buffer (1:1) at room temperature for 1 hour. Samples were washed three times with PBST for 15 minutes each at room temperature and visualized. Stained cells were quantified with ImageJ Imaging Analysis Software. The standard error mean was calculated for all comparisons; p<0.05 was considered statistically significant. […]

[4] = tested on: cardiac and fibroblast genes; assay: qRT-PCR panel of cardiac and fibroblast genes during GMT reprogramming; format: cell-based, mouse; conditions: 2 weeks of reprogramming
Description: To identify which of the WNT or TGF-β inhibitor compounds most effectively improve reprogramming quality, qRT-PCR was performed for a panel of cardiac and fibroblast genes. Briefly, total RNA was isolated with a commercial kit (Direct-Zol RNA Mini-prep, Zymo Research). Reverse transcription was carried out using a mixture of oligo(dT) and random hexamer primers (SuperScript III First-Strand Synthesis SuperMix for qRT-PCR, ThermoFisher Scientific). Real-time PCR Analysis was conducted with the 7900HT FAST real-time PCR detection system (Applied Biosystems). For high-throughput, real-time PCR analysis, samples were analyzed with the 96.96 Dynamic Array IFC on the Biomark HD system (Fluidigm).

active β catenin = assay: Western blot, active β catenin; format: cell-based
Description: as §1

For `Cc1c[nH]c(-c2cnc(NCCNc3ccc(C#N)cn3)nc2-c2ccc(Cl)cc2Cl)n1` [CHIR99021], the “effect on reprogramming enhanced by SB431542 and XAV939” value (from here on “effect … by SB431542 and XAV939”) (cardiac fibroblasts) was “reversed the combined effect”.

In the case of “TGF-β1 ligand: excess TGF-β1 ligand added during reprogramming”, the “effect on reprogramming enhanced by SB431542” value (cardiac fibroblasts) is reported as “reversed the effect of SB431542” and the “effect … by SB431542 and XAV939” value (cardiac fibroblasts) is reported as “partially inhibited the combined effect”.

With activin the “effect on reprogramming enhanced by SB431542” value (cardiac fibroblasts) was “did not have a significant effect”.

With `NC(=O)c1ccc(-c2nc(-c3ccc4c(c3)OCO4)c(-c3ccccn3)[nH]2)cc1` [SB431542] the “phosphorylation of SMAD2/3 (indicator of TGF-β activation)” value (SMAD2/3) was “significantly reduced”, the “timing of addition for reprogramming efficiency” value ([1]; GMT, SB431542 2.6 μM) was “most effective if added at day 1” and the “hit in drug screen (Z score over 5)” value [2] was “top hits”. For the same molecule, the “appearance of beating cells” value [3] was 3 weeks and the “downregulating fibroblast gene expression” value ([4]; among TGF-β inhibitors) was “most efficient of the TGF-β inhibitors”.

`NC(=O)c1ccc(-c2nc(-c3ccc4c(c3)OCCO4)c(-c3ccccn3)[nH]2)cc1` [D4476] was tested, and the “hit in drug screen (Z score over 5)” value [2] was “top hits”.

For `O=C(Nc1cccc2cccnc12)c1ccc(N2C(=O)[C@@H]3[C@H](C2=O)[C@@H]2C=C[C@H]3C2)cc1` [IWR1], the “hit in drug screen (Z score over 5)” value [2] was “top hits”.

For `CN1C(C(=O)Nc2ccccn2)=C(O)c2ccccc2S1(=O)=O` [piroxicam], the “hit in drug screen (Z score over 5)” value [2] was “top hits”.

For `c1ccc2c(-c3cnn4cc(-c5ccc(N6CCNCC6)cc5)cnc34)ccnc2c1` [LDN-193189], the “hit in drug screen (Z score over 5)” value [2] was “top hits”.

`O=c1c(O)c(-c2cc(O)c(O)c(O)c2)oc2cc(O)cc(O)c12` [myricetin] was tested, and the “hit in drug screen (Z score over 5)” value [2] was “top hits”.

`Oc1nc(-c2ccc(C(F)(F)F)cc2)nc2c1CSCC2` [XAV939] was tested, and the “expression of active β catenin (indicator of WNT activation)” value (active β catenin) was “significantly reduced”, the most effective dose ([1]; GMT reprogramming efficiency) was 5 µM and the “effect of time of addition on enhancement” value ([1]; GMT, XAV939) was “same enhancement effect when added at any time during the first 8 days”. For the same molecule, the “hit in drug screen (Z score over 5)” value [2] was “top hits” and the “activating cardiac gene expression” value ([4]; among WNT inhibitors) was “most efficient of the WNT inhibitors”.

B1: WNT3a: activates canonical WNT signaling (protein, UniProt P56704 19-352, looked up)
Protein Wnt-3a: SYPIWWSLAVGPQYSSLGSQPILCASIPGLVPKQLRFCRNYVEIMPSVAEGIKIGIQECQHQFRGRRWNCTTVHDSLAIFGPVLDKATRESAFVHAIASAGVAFAVTRSCAEGTAAICGCSSRHQGSPGKGWKWGGCSEDIEFGGMVSREFADARENRPDARSAMNRHNNEAGRQAIASHMHLKCKCHGLSGSCEVKTCWWSQPDFRAIGDFLKDKYDSASEMVVEKHRESRGWVETLRPRYTYFKVPTERDLVYYEASPNFCEPNPETGSFGTRDRTCNVSSHGIDGCDLLCCGRGHNARAERRREKCRCVFHWCCYVSCQECTRVYDVHTCK
With B1 the “effect … by SB431542 and XAV939” value (cardiac fibroblasts) was “partially blocked the effects”.

B2: WNT11: activates the non-canonical WNT pathway (protein, UniProt O96014 25-354, looked up)
Protein Wnt-11: IKWLALSKTPSALALNQTQHCKQLEGLVSAQVQLCRSNLELMHTVVHAAREVMKACRRAFADMRWNCSSIELAPNYLLDLERGTRESAFVYALSAAAISHAIARACTSGDLPGCSCGPVPGEPPGPGNRWGGCADNLSYGLLMGAKFSDAPMKVKKTGSQANKLMRLHNSEVGRQALRASLEMKCKCHGVSGSCSIRTCWKGLQELQDVAADLKTRYLSATKVVHRPMGTRKHLVPKDLDIRPVKDSELVYLQSSPDFCMKNEKVGSHGTQDRQCNKTSNGSDSCDLMCCGRGYNPYTDRVVERCHCKYHWCCYVTCRRCERTVERYVCK
In the case of B2, the “effect … by SB431542 and XAV939” value (cardiac fibroblasts) is reported as “did not have a significant effect”.

B3: BMP4: regulates other aspects of TGF-β signaling (protein, UniProt P12644 293-408, looked up)
Bone morphogenetic protein 4: SPKHHSQRARKKNKNCRRHSLYVDFSDVGWNDWIVAPPGYQAFYCHGDCPFPLADHLNSTNHAIVQTLVNSVNSSIPKACCVPTELSAISMLYLDEYDKVVLKNYQEMVVEGCGCR
B3 was tested, and the “effect on reprogramming enhanced by SB431542” value (cardiac fibroblasts) was “did not significantly affect cardiac reprogramming”.
